Melting point data for 87 molecules are collected here from a melting point compilation (Tetko et al.; mined from patent text by program, amines drawn as free bases though some values may be those of a salt).

Each structure is given as a SMILES string. A value given as a limit tells only on which side of the number the result lay.

One may read the melting point as the temperature of the solid-liquid transition.

`O=C1NC(=S)NC1Cc1c[nH]c2ccccc12` (configuration not stated): the melting point lay in the range of 206 to 210 °C.

For `Nc1ccn(C2CC(O)C(CO)O2)c(=O)c1F` (configuration not stated), the melting point fell in the range of 161 to 163 °C.

With `O=C1CCC(N2C(=O)c3cccc(NCC(=O)N4CCC4)c3C2=O)C(=O)N1` (configuration not stated), the melting point was in the range of 272 to 274 °C.

As for `N#CCC(O)(c1ccccc1C(F)(F)F)c1ccccc1C(F)(F)F`, the melting point fell in the range of 168 to 170 °C.

With `CC(C)c1cccc(C(C)C)c1NC(=O)CC(=O)N(Cc1ccccc1)C(C)C`, the melting point is 102 °C.

`CCOCc1nc(C(C)(C)O)c(C(=O)O)n1Cc1ccc(-c2ccccc2C(=O)O)cc1` showed a melting point of 166 to 169 °C.

With `Cc1nc(NCc2ccccc2)[nH]c(=O)c1CCO`, the melting point turned out to be 187 °C.

Take `COC(=O)CCC(C#N)(CCC(=O)OC)c1cccc(Cl)c1`: the melting point was in the range of 78.5 to 80 °C.

In the case of `CONC(=O)COc1cc2c(cc1C#Cc1ccccc1)NC(=O)CC(c1cccc(C#N)c1)=N2`, the melting point was over 250 °C.

On to `NC(=O)N(O)CCNC(=O)c1cc2c(Cl)cccc2s1`, for which the melting point lay in the range of 181 to 184 °C.

In turn, `COc1ccc([N+](=O)[O-])c(C=O)c1` gave a melting point of 89 to 90 °C.

On to `CCn1c2ccc(C=O)cc2c2cc(C=C(c3ccccc3)c3ccccc3)ccc21`, for which the melting point lay within 166 to 167 °C.

Molecule `CC(=O)OC1Cc2ccccc2N(C(N)=O)c2ccccc21` (configuration not stated) registered a melting point of 185 °C.

For the molecule `O=C(O)CC(CSc1nc2ccccc2s1)C(=O)O` (configuration not stated), the melting point lay within 136 to 139 °C.

The molecule `CCOCC1OC(n2c(Cl)nc3cc(Cl)c(Cl)cc32)C(O)C1O` (configuration not stated) yielded a melting point of 88 to 90 °C.

With `Cc1nccc(N2CCN(C(=O)c3ccccc3)CC2)n1`, the melting point was 147 °C.

Regarding `CCCc1ccnc2c(=O)[nH]c(-c3cc(S(=O)(=O)N4CCN(C)CC4)ccc3OCC)nc12`, the melting point lay in the range of 211 to 212 °C.

On to `O=C(CSCCNC(=O)c1ccco1)NCCCOc1cccc(CN2CCCCC2)c1`, for which the melting point lay in the range of 60.5 to 61.5 °C.

In the case of `O=C(CCCO)NCc1cccc(Nc2n[nH]c3ncnc(Nc4cccc(Cl)c4)c23)c1`, the melting point was in the range of 182 to 184 °C.

Molecule `OCc1cn(-c2cc(F)cc(Br)c2)cn1` showed a melting point of 134 to 138 °C.

Molecule `O=C(O)C1C(c2ccc3c(c2)OCO3)c2ccccc2C1c1ccc2c(c1)OCO2` (racemic) showed a melting point of 182 to 185 °C.

`NCc1cn2ccccc2n1` came in with a melting point of 91 to 93 °C.

Consider `CSCn1cc(F)c(N=CN(C)C)nc1=O`, for which the melting point lay in the range of 132 to 136 °C.

`CC(C)(C)C(=O)OCN1C(=O)CN(CCN2CC(=O)N(COC(=O)C(C)(C)C)C(=O)C2)CC1=O` registered a melting point of 114 to 118 °C.

`O=C(O)CSCCSc1cc(-c2ccccc2)c(O)c(-c2ccccc2)c1` had a melting point of 125 °C.

For the molecule `CNC(=S)NS(=O)(=O)c1cc(CCNC(=O)c2cnc3ccccc3c2)ccc1OC`, the melting point came to 85 °C.

Consider `Cc1cc(OCC(=O)NCCO[N+](=O)[O-])no1`, for which the melting point is 93 to 94 °C.

Consider `O[C@H](CCc1cccnc1)COc1ccc(-c2nnco2)cc1`, for which the melting point lay in the range of 130 to 133 °C.

As to `COC(=O)C(=CNc1ccc(O)cc1)C(=O)C=CC1CC=CCC1` (configuration not stated), the melting point was 151 to 153 °C.

`CC(C)(C)[Si](OCc1ccc([N+](=O)[O-])cc1)(c1ccccc1)c1ccccc1` showed a melting point of 80 to 81 °C.

Consider `Cc1c(-c2ccc(C[C@H](NC(=O)c3c(Cl)cccc3Cl)C(=O)O)cc2)c(=O)n(C)c(=O)n1C`, for which the melting point was in the range of 225 to 227 °C.

Take `COc1cc(OC)c(-c2cc3ccccc3[nH]2)cc1C=CC(=O)c1ccc(C(=O)O)cc1`: the melting point lay within 210 to 212 °C.

Molecule `COc1ccc(OC)c(C=CC(=O)N(C)O)c1` yielded a melting point of 111 to 112 °C.

Consider `COC(=O)CNc1cc2cc(OC)ccc2cc1OCc1ccccc1`, for which the melting point was 129 to 131 °C.

As for `O=C(c1cc(Br)c(O)c(Br)c1)c1c(CCc2ccccc2)oc2ccccc12`, the melting point is 153 to 154 °C.

`CC1CC(C)(C)C(CNc2ccnc3cc(Cl)ccc23)C1N` (configuration not stated) showed a melting point of over 250 °C.

For `Cc1cccc(O[C@@H]2CN(Cc3ccccc3)C[C@H]2O)c1C` (relative stereo), the melting point was in the range of 100 to 104 °C.

Molecule `CC(C)(C)c1ccc(C(=O)Nc2cn3cc(-n4ccnc4)ccc3n2)cc1` came in with a melting point of 289 to 291 °C.

`COc1ccc(S(=O)(=O)C(Cc2ccc3ccccc3c2)C(=O)NO)cc1` (configuration not stated) returned a melting point of 161 to 163 °C.

For `O=C1CCC2(CCN1)Cc1ccccc1C2`, the melting point fell in the range of 164 to 165 °C.

`COc1ccc(C(C)(C)C)cc1NC(=O)Nc1ccc(C)cc1N` registered a melting point of 165 to 166 °C.

Take `NC(=O)c1sc2ncnc(-c3cccc(NC(=O)Nc4ccccc4C(F)(F)F)c3)c2c1N`: the melting point lay in the range of 172 to 175 °C.

Regarding `CCc1n[nH]c2c1nc(-c1cccnc1)c1ccccc12`, the melting point was in the range of 219 to 220 °C.

For `C=CCOn1cc(C(=O)NCc2ccc(Cl)cc2)c(=O)c2ccccc21`, the melting point was in the range of 113 to 114 °C.

In turn, `CC(=O)OCC1OC(n2cc(C(Br)=CBr)c(=O)[nH]c2=O)CC1OC(C)=O` (configuration not stated) yielded a melting point of 79 to 81 °C.

In turn, `COC(=O)c1ccc(-c2ccc(NC(=O)c3ccc(OC)c(CCCN(C)C)c3)cc2)cc1` displayed a melting point of 188 to 192 °C.

Regarding `CCOC(=O)c1ccc(NC(=O)C=Cc2ccc(OC)cc2)cc1`, the melting point was in the range of 163 to 166 °C.

With `N#CC1(c2ccccc2)CCC2(CC1)OCCO2`, the melting point was 108 to 110 °C.

With `CC12CCC(=O)C=C1CCC1C2=CCC2(C)C(C#N)=CCC12` (configuration not stated), the melting point fell in the range of 148 to 150 °C.

`Nc1cc(-n2c(=O)oc3c(c2=O)CCC3)c(F)cc1Cl`: the melting point came to 93 °C.

As to `C#CCn1nc(-c2cc(C(C)(C)C)c(O)c(C(C)(C)C)c2)c2cccnc21`, the melting point lay in the range of 172 to 174 °C.

Molecule `COc1ccc(C(O)c2cc(O)ccc2OC)cc1` (configuration not stated) registered a melting point of 62 to 68 °C.

Molecule `O=C(/C=C/c1cccc(F)c1)N1CCN(C(=O)c2cc(C(F)(F)F)cc(C(F)(F)F)c2)[C@H](Cc2c[nH]c3ccccc23)C1` displayed a melting point of 120 to 130 °C.

Molecule `O=[N+]([O-])c1ccccc1OCCN1CCN(c2cc(Cl)nnc2Cl)CC1` showed a melting point of 125 to 126 °C.

Regarding `C[C@]1(CN2CCC(NC(=O)Nc3ccc(C(F)(F)F)cc3)CC2)Cn2cc([N+](=O)[O-])nc2O1`, the melting point was in the range of 137 to 140 °C.

For `CS(=O)(=O)c1ccc(-c2nnc(Cl)cc2-c2ccc(Cl)cc2)cc1`, the melting point amounted to 190 °C.

In the case of `Fc1ccc(-n2c3c(c4cc(F)ccc42)CN(CCc2ccc4ccccc4n2)CC3)cc1`, the melting point lay within 201 to 203 °C.

Turning to `CCN1C(=O)c2ccc(N)cc2C1=O`, the melting point was in the range of 169 to 171 °C.

`N#CC(=NOC(=O)OCC(Cl)(Cl)Cl)c1ccccc1` gave a melting point of 82 to 84 °C.

`CC(=O)c1cccc(Oc2cccc(-c3cccc(C(=O)NCCC#N)c3)n2)c1` had a melting point of 140 to 141 °C.

Turning to `CC(=O)OCCn1cc(C(N)=O)c([N+](=O)[O-])n1`, the melting point lay within 139 to 141 °C.

The molecule `CC(NC(=O)CCc1ccc(C(C)(C)C)cc1)c1ccc(NS(C)(=O)=O)c(F)c1` (configuration not stated) registered a melting point of 152 to 154 °C.

Take `CCN(CCCCC12CC3CC(CC(C3)C1)C2)C(=O)NCCCc1ccncc1`: the melting point fell in the range of 92.7 to 93.7 °C.

In turn, `COc1ccc(Cn2nnnc2C(O)c2ccccc2C)cc1` (racemic) had a melting point of 90 to 92 °C.

`Cc1c(C)c(N2CCN(c3ccccc3)CC2)c(C)c2c1OC(C)(C)C2O` (configuration not stated) gave a melting point of 142 to 144 °C.

`CC(=CC(=O)O)c1ccc(-c2ccc(F)cc2F)cc1` yielded a melting point of 193 to 195 °C.

As for `COc1ccc(S(=O)(=O)C[N+](=O)[O-])c2ccccc12`, the melting point fell in the range of 109 to 110 °C.

For the molecule `CC(=O)OC1CSC(Oc2ccc(-c3ccncc3)nc2F)C(OC(C)=O)C1OC(C)=O` (configuration not stated), the melting point is 164 °C.

In turn, `N#Cc1ccc(C=CC(=O)c2ccccc2N)cc1` came in with a melting point of 126 to 128 °C.

On to `CCc1ccnc(C(=O)c2[nH]c3ccc(Cl)cc3c2CC(=O)O)c1`, for which the melting point was in the range of 217 to 218 °C.

For the molecule `CCCCc1nc(CO)c(C(=O)N2CCC[C@H]2C(=O)OC)n1Cc1ccc(-c2ccccc2C(=O)O)cc1`, the melting point is over 120 °C.

`CCCCCCCCCCCCCCCC(=O)NCCCSc1ccncc1` registered a melting point of 84 to 85 °C.

Regarding `C#Cc1ccnc(-c2cc(N)c(C#C[Si](C)(C)C)cc2[N+](=O)[O-])c1`, the melting point fell in the range of 145 to 150 °C.

In turn, `NC(=O)c1sc2nccc(N3CCCC(O)C3)c2c1N` (configuration not stated) yielded a melting point of 208 to 211 °C.

Regarding `CC(C)C1(C)NC(c2nc(-c3ccsc3)ccc2C(=O)O)=NC1=O` (configuration not stated), the melting point lay within 253 to 257 °C.

Regarding `Cc1cc(C(=O)N2CCC3(CC2)CSC2=C(O3)c3ccccc3C(=O)C2=O)nn1C`, the melting point was 184 to 185 °C.

Turning to `O=C(Nc1nc(-c2ccco2)c(C(=O)C2CCOCC2)s1)c1ccco1`, the melting point lay within 196 to 198 °C.

The molecule `O=C(NCCc1cccc2ccc(OC3C=CCCC3)cc12)C1CCC1` (configuration not stated) registered a melting point of 104 to 106 °C.

`C=CCCc1ccc(C(N)=O)c(O)n1` came in with a melting point of 195 to 198 °C.

Take `O=C(CCCCN1CCCCC1)NNC(=O)N1Cc2ccccc2Oc2ccc(Cl)cc21`: the melting point is 126 to 128 °C.

`CCCN(CCC)C(=O)C(CO)Nc1nc(-c2ccccc2)nc(C)c1C` (configuration not stated) came in with a melting point of 132 to 133 °C.

For the molecule `COC(=O)CCc1ccc(N2CCN(c3ccc4c(c3)CCC4=O)C2=O)cc1`, the melting point fell in the range of 204 to 206 °C.

`N#CCc1cc(O)cc2cc(-c3ccc(O)c(F)c3)oc12`: the melting point fell in the range of 242 to 244 °C.

Take `CN1CCN(c2ccc(-c3nc4c(N[C@H]5[C@@H](C(N)=O)[C@@H]6C=C[C@H]5C6)ccnc4[nH]3)cc2)CC1`: the melting point lay within 220 to 222 °C.

Regarding `Cn1cc(-c2ccccc2)c(C(=O)NCCNC(=O)OC(C)(C)C)n1`, the melting point worked out at 145 °C.

`CC(=O)N1CC=C(c2cc3c(cc2F)c(=O)c2c(=O)[nH]sc2n3C2CC2)CC1` showed a melting point of 243 to 244 °C.

`CC(CNc1cccc(-c2ccnc3c(C(=O)c4cccs4)cnn23)c1)c1ccccc1` (configuration not stated) returned a melting point of 108 to 110 °C.
